Legend:
[1] = single administration of a metered dose, aerosol formulation, asthma; cited from earlier work
[2] = Particle size of micronised drug substance after jet milling; assay type: physicochemical; details: after micronisation in jet mill
Protocol: 37 g of magnesium […] are mixed with 1 kg of crystalline glycopyrronium bromide in a Turbula® blender for 5 hours. The resulting mixture is micronised using a Hosokawa Alpine® 100 AFG fluid bed opposed jet mill with the following parameters: classifier speed, 13000 rpm; milling gas pressure, 3.5 bar. The mill is equipped with 3 nozzles of 1.9 mm diameter.
The resulting mixture has a median particle size of about 3 micron (x90=7 micron, x50=3 micron, x10=1 micron). The magnesium stearate is well distributed over the drug substance surface.
(§1) Drug substance 1:50 g of magnesium stearate are mixed with 1 kg of crystalline glycopyrronium bromide in a Turbula® blender for 5 hours. The resulting mixture is micronised using a Hosokawa Alpine® 100 AFG fluid bed opposed jet mill (equipped with 3 nozzles of 1.9 mm diameter) with the following parameters: classifier speed, 13000 rpm; milling gas pressure, 3.5 bar, to give particles that have an average particle size of less than 5 microns.
as §1, with “2:” for “1:50 g of magnesium stearate are mixed with”, “glycopyrroninum” for “glycopyrronium”, “bromide” for “bromide in a Turbula® blender for 5 hours. The resulting mixture”

SMILES | duration of bronchodilation [1] | average particle size [2]
C[N+]1(C)CCC(OC(=O)C(O)(c2ccccc2)C2CCCC2)C1.[Br-] (centres unmarked) [glycopyrrolate, 3-[(cyclopentyl-hydroxyphenylacetyl)oxy]-1,1-dimethyl-pyrrolidinium bromide] | up to 12 hours | 
C[N+]1(C)CCC(OC(=O)C(O)(c2ccccc2)C2CCCC2)C1 (centres unmarked) [Drug substance 2, glycopyrroninum bromide] |  | less than 5 microns
